Values joined by “and” are separate entries in the source; they are usually repeats but may differ in a detail not shown here. Equal values may be shown once. “Also recorded” adds a separate entry of the source. Read-outs that look alike come from different tables or passages of the source.
Test system: Coptotermes formosanus
Conditions: for Surface Activity (termites on the surface of the soil) / Tunneling Activity / Visible Mortality / repellent effect on termites (surface activity data) / termite mortality by the end of the incubation period / toxic value, lower (concentration at which the wood is no longer sufficiently protected) / toxic value, upper (lowest concentration which protects the wood) / Mean Rating (termite attack) / Termite Attack Rating: ethanol carrier; for reduction in termite attack: concentrated solutions, followed by leaching; for termite mortality by the end of the incubation period: higher concentrations; for toxic value, lower (concentration at which the wood is no longer sufficiently protected) / toxic value, upper (lowest concentration which protects the wood): mean loading, leached; for toxic value, lower (concentration at which the wood is no longer sufficiently protected): solution concentration 5%; for toxic value, upper (lowest concentration which protects the wood): solution concentration 7%; for Mean Rating (termite attack): mean of 4 specimens; for Mean Rating (termite attack) / Termite Attack Rating: 4 weeks sand culture; for Termite Attack Rating: single specimen
From the text: A laboratory test was undertaken to determine the toxic values of novel actives against termites. The active materials used were TBBA, TBBE [4,4′-ethylidenebis(2,6-dibromophenol)] [CAS RN=12639-25-3] (Sample Number 1392-82-03); TBBZ [4,4′-cyclohexylidene(2,6-dibromophenol)] [CAS RN=53350-96-2] (Sample Number 1392-72-03) and TBA, 2,2′,6-tribromo-4,4′-isopropylidenediphenol, CAS 6386-73-8 (Sample Number 1392-75-03).
The test was undertaken largely according to the strictures laid down in ASTM 3345-74 (the American standard laboratory test to assess the termite resistant properties of wood to wood destroying termites). The test method allows for the exposure of treated buried wood blocks to termites (Reticulitermes or Coptotermes spp.) over a period of 4 weeks. Efficacy of the product is determined by the extent of termite damage to the treated timber specimens through a scoring system. The test was slightly modified from the standard ASTM test by reducing the number of replicate wood specimens from 5 to 4.
Score 1: Attempted attack
The toxic values of the preservative product (in kg/m^3 of wood) fall between two values as follows:
1) The lowest concentration which protects the wood (i.e. the concentration at which none of the test specimens show a degree of attack greater than 1).
The termites employed were Coptotermes formosanus.
All wood bock specimens were of Southern Yellow Pine sapwood (Pinus spp.) with dimensions of 25.4×25.4×6.4 mm in accordance with ASTM D3345-74. All blocks were vacuum impregnated with the relevant solutions in accordance with ASTM D3345-74. Distribution of blocks in the test was as follows:
The test specimens were conditioned and subjected to a leaching schedule (after vacuum impregnation) as stipulated in ASTM D1413-76 (as recommended in ASTM D3345-74). All test specimens were then air dried for two weeks to constant weight.
The specimens were each positioned at the base of a 500 ml polyethylene culture jar (numbered according to each test specimen) and covered with 200 g of sand (pre-washed, sterilised and air conditioned in the laboratory) to which was added 25 g of de-ionised water. A further two containers containing watered sand but no timber were also prepared. All the jars were sealed (lids pre-pierced and covered with stainless steel mesh for aeration).
Two days after specimen placement, 200 termites were added to each culture jar (90% workers and 10% soldiers) and the jars re-sealed. The jars were incubated at a mean temperature and relative humidity of 27.5° C. and 75-90% for 4 weeks. The containers were provided with an artificial lighting regime of 10 hours light and 14 hours darkness.
After 1 week and 4 weeks each container was examined to determine termite mortality and normal tunneling behaviour patterns as follows:
Is there tunneling present: YES/NO
Are there any termites on the surface of the soil: YES/NO (if yes how many, i.e. 1-25% of pop, 26-50% of pop, 51-100% of pop.)
Are any dead termites visible: YES/NO (if yes how many, 1-33%, 34-66%, 67-100%)
After 4 weeks the test specimens were removed and cleaned of debris. Each block was examined and visually rated for termite damage using the scoring system detailed above.
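Wherever Termite Attack Rating is given: score 0 no attack 2 slight 3 average 4 strong attack.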

CC(C)(c1ccc(O)c(Br)c1)c1cc(Br)c(O)c(Br)c1 [TBA, 2,2′,6-tribromo-4,4′-isopropylidenediphenol]
Surface Activity (termites on the surface of the soil) (1 week, solution conc. 1%): No/No
Tunneling Activity (1 week, solution conc. 1%): Yes/Yes
Visible Mortality (1 week, solution conc. 1%): No/No
Surface Activity (termites on the surface of the soil) (1 week, solution conc. 3%): No/No
Tunneling Activity (1 week, solution conc. 3%): Yes/Yes
Visible Mortality (1 week, solution conc. 3%): No
Surface Activity (termites on the surface of the soil) (1 week, solution conc. 5%): No/No
Tunneling Activity (1 week, solution conc. 5%): Yes/Yes
Visible Mortality (1 week, solution conc. 5%): No
Surface Activity (termites on the surface of the soil) (1 week, solution conc. 7%): No/No
Tunneling Activity (1 week, solution conc. 7%): Yes/Yes
Visible Mortality (1 week, solution conc. 7%): No
Surface Activity (termites on the surface of the soil) (1 week, solution conc. 10%): No/No
Tunneling Activity (1 week, solution conc. 10%): Yes/Yes
Visible Mortality (1 week, solution conc. 10%): No
Surface Activity (termites on the surface of the soil) (4 weeks, solution conc. 1%): No/No
Tunneling Activity (4 weeks, solution conc. 1%): Yes/Yes
Visible Mortality (4 weeks, solution conc. 1%): No/No
Surface Activity (termites on the surface of the soil) (4 weeks, solution conc. 3%): No/No
Tunneling Activity (4 weeks, solution conc. 3%): Yes/Yes
Visible Mortality (4 weeks, solution conc. 3%): 1-33 % (of pop.)
Surface Activity (termites on the surface of the soil) (4 weeks, solution conc. 5%): No/No
Tunneling Activity (4 weeks, solution conc. 5%): Yes/Yes
Visible Mortality (4 weeks, solution conc. 5%): 34-66 % (of pop.)
Surface Activity (termites on the surface of the soil) (4 weeks, solution conc. 7%): No/No
Tunneling Activity (4 weeks, solution conc. 7%): Yes/Yes
Visible Mortality (4 weeks, solution conc. 7%): 34-66 % (of pop.)
Surface Activity (termites on the surface of the soil) (4 weeks, solution conc. 10%): No/No
Tunneling Activity (4 weeks, solution conc. 10%): Yes/Yes
Visible Mortality (4 weeks, solution conc. 10%): 34-66 % (of pop.)
reduction in termite attack: a significant reduction in termite attack
repellent effect on termites (surface activity data): no repellent effect
termite mortality by the end of the incubation period: 34-66%
toxic value, lower (concentration at which the wood is no longer sufficiently protected) (4 weeks): 30.17 kg/m^3
toxic value, upper (lowest concentration which protects the wood) (4 weeks): 41.22 kg/m^3
Mean Rating (termite attack) (solution conc. 1%): 3.00
Termite Attack Rating (solution conc. 1%): 3 and 2 and 4
Mean Rating (termite attack) (solution conc. 3%): 1.75
Termite Attack Rating (solution conc. 3%): 2 and 1
Mean Rating (termite attack) (solution conc. 5%): 1.75
Termite Attack Rating (solution conc. 5%): 2 and 1
Mean Rating (termite attack) (solution conc. 7%): 1.00
Termite Attack Rating (solution conc. 7%): 1
Mean Rating (termite attack) (solution conc. 10%): 1.00
Termite Attack Rating (solution conc. 10%): 1

CC(c1cc(Br)c(O)c(Br)c1)c1cc(Br)c(O)c(Br)c1 [TBBE, 4,4′-ethylidenebis(2,6-dibromophenol)]
Surface Activity (termites on the surface of the soil) (1 week, solution conc. 1%): No/No
Tunneling Activity (1 week, solution conc. 1%): Yes/Yes
Visible Mortality (1 week, solution conc. 1%): No/No
Surface Activity (termites on the surface of the soil) (1 week, solution conc. 3%): No/No
Tunneling Activity (1 week, solution conc. 3%): Yes/Yes
Visible Mortality (1 week, solution conc. 3%): No
Surface Activity (termites on the surface of the soil) (1 week, solution conc. 5%): No/No
Tunneling Activity (1 week, solution conc. 5%): Yes/Yes
Visible Mortality (1 week, solution conc. 5%): No
Surface Activity (termites on the surface of the soil) (1 week, solution conc. 7%): 1-25%/1-25% (of % (of pop.)
Tunneling Activity (1 week, solution conc. 7%): Yes/Yes
Surface Activity (termites on the surface of the soil) (1 week, solution conc. 10%): 1-25%/1-25% (of % (of pop.)
Tunneling Activity (1 week, solution conc. 10%): Yes/Yes
Visible Mortality (1 week, solution conc. 10%): No
Surface Activity (termites on the surface of the soil) (4 weeks, solution conc. 1%): No/No
Tunneling Activity (4 weeks, solution conc. 1%): Yes/Yes
Visible Mortality (4 weeks, solution conc. 1%): No/No
Surface Activity (termites on the surface of the soil) (4 weeks, solution conc. 3%): No/No
Tunneling Activity (4 weeks, solution conc. 3%): Yes/Yes
Visible Mortality (4 weeks, solution conc. 3%): 1-33 % (of pop.)
Surface Activity (termites on the surface of the soil) (4 weeks, solution conc. 5%): No/No
Tunneling Activity (4 weeks, solution conc. 5%): Yes/Yes
Surface Activity (termites on the surface of the soil) (4 weeks, solution conc. 7%): 1-25%/1-25% (of % (of pop.)
Tunneling Activity (4 weeks, solution conc. 7%): Yes/Yes
Visible Mortality (4 weeks, solution conc. 7%): 67-100 % (of pop.)
Surface Activity (termites on the surface of the soil) (4 weeks, solution conc. 10%): 1-25%/1-25% (of % (of pop.)
Tunneling Activity (4 weeks, solution conc. 10%): Yes/Yes
Visible Mortality (4 weeks, solution conc. 10%): 67-100 % (of pop.)
reduction in termite attack: a significant reduction in termite attack
repellent effect on termites (surface activity data): a degree of termite repellency; also recorded: a repellent effect at certain stages of the incubation period; also recorded: a repellent effect early in the incubation period at higher concentrations
termite mortality by the end of the incubation period: significant termite mortality
toxic value, lower (concentration at which the wood is no longer sufficiently protected) (4 weeks): 28.53 kg/m^3
toxic value, upper (lowest concentration which protects the wood) (4 weeks): 35.93 kg/m^3
Mean Rating (termite attack) (solution conc. 1%): 3.00
Termite Attack Rating (solution conc. 1%): 3
Mean Rating (termite attack) (solution conc. 3%): 2.00
Termite Attack Rating (solution conc. 3%): 2 and 3 and 1
Mean Rating (termite attack) (solution conc. 5%): 1.50
Termite Attack Rating (solution conc. 5%): 2 and 1
Mean Rating (termite attack) (solution conc. 7%): 1.00
Termite Attack Rating (solution conc. 7%): 1
Mean Rating (termite attack) (solution conc. 10%): 1.25
Termite Attack Rating (solution conc. 10%): 1 and 2

— US20040266885A1, “Wood preservative compositions” (priority 2001, published 2004)
